Patent US9505798B2, “Steroid compounds as RORyt modulators and uses thereof” (New York University, priority 2010, dated 2016)

Key:
[1] = system: human embryonic kidney 293t cell lines; assay: Toxicity on human embryonic kidney 293T cells; details: human
Procedure: The following representative compounds are tested for their RORγt inhibitory activity and toxicity.

RORγt = target: T1, RORγt (Mus musculus, UniProt P51450); format: cell-based
T1 construct: expressed in transfected cells; host or cells: mouse naive CD4+ T cells, retroviral MIGr vector
Procedure: (§1) Naive CD25^− CD62L^+CD44^low/int cells were sorted from RORγt^fl/fl mice and transduced with control-IRES-GFP (WT) or CRE-IRES-GFP (KO) retrovirus. […] FACS-sorted naive T cells were transduced with retroviral vectors encoding murine RORα-IRES-GFP or RORγt-IRES-GFP on Day 1 (16 h after TCR stimulation) and GFP expressing cells were gated for analysis on Day 5. […] Lymphocytes were isolated on day 21 after disease induction. The cells were stimulated for 4 h with PMA/Ionomycin and stained for surface markers and intracellular cytokines.
(§2) T cells were purified from lymph nodes and spleens of six to eight weeks old B6 mice (Taconic), by magnetically depleting B220^+ cells (autoMACS, Miltenyi), and then sorting CD8^−DAPI^−CD19^−CD4^+CD25^−CD62L^+CD44^low/Int naive T cells on a FACSAria (BD). […] For T cell polarization, 200 μl cells were seeded at 0.4×10^5 cells per mL in 96-well plates pre-coated with anti-CD3ε (5 μg/mL) and anti-CD28 (10 μg/mL). Cells were cultured for 4-5 days in Th17 (TGF-β (0.3 ng/mL), IL-6 (20 ng/mL), and anti-IFN-γ and anti-IL-4 (2 ng/mL)), Th1 (IL-12 (10 ng/mL), IL-2 (10 U/mL) and anti-IL-4 (2 ng/mL)), or Th2 (IL-4 (10 ng/mL), and anti-P35 and anti-IFN-γ 2 ng/mL)) conditions. For ectopic expression ROR proteins, native CD4^+ T cells were infected with retroviral MIGr-control, MIGr-RORα or MIGr-RORγ 24 hrs after activation, and cultured without exogenous cytokines or only with IL-6. At day 1, compounds dissolved in DMSO were added. For cytokine analysis, cells were incubated for 5 hours with phorbol 12-myristate 13-acetate (50 ng/mL; Sigma), ionomycin (500 ng/mL; Sigma) and GolgiStop (BD). Intracellular cytokine staining was performed according to the manufacturer's protocol (Cytofix/Cytoperm buffer set from BD) with alexa647-conjugated anti-IL-17a (eBioscience), and PE-conjugated anti-IFN-γ or anti-IL-4 (eBioscience). An LSR II (BD Biosciences) and FlowJo software (Tree Star) were used for flow cytometry and analysis. Dead cells were excluded using the Live/Dead fixable aqua dead cell stain kit (Invitrogen).

[2] = system: mouse Th17 cell differentiation; assay: In vitro mouse naive CD4+ T cell polarization; format: cell-based
Procedure: as §1, §2
Complementary DNAs (cDNAs) were synthesized from TRIzol (Invitrogen) isolated RNA, using M-MLV Reverse Transcriptase (Promega). Real-time RT-PCR was performed with SYBRgreen master mix (Roche) and the Roche real-time PCR system (Roche480). Gene specific values were normalized to Actb for each sample.

[3] = system: gut (large intestine) Th17 cells; assay: DSS-induced model relating to intestinal bowel diseases; format: in vivo, mouse; set-up: dose or concentration left out as unconfirmed; details: IP daily, day 7
Procedure: Th17 cells were induced by Dextran Sulfate Sodium (DSS) treatment, a chemical agent that causes intestinal epithelial injury, and thus, is often used to generate an animal model that mimics many aspects of intestinal bowel diseases. […] Gut associated mononuclear cells were collected and their cytokine expression was analyzed on day 7. Representative FACS plots (gated on CD4^+CD3^+TCRβ^+CD19^− cells) from each group are shown (left).
B6 wild-type mice received 2% DSS (Dextran Sulfate Sodium) ad libitum in drinking water for 7 days. […] Gut associated cells were collected and activated for cytokine straining on day 7. To isolate cells from the small intestinal lamina propria, Peyer's patches, fat and mesenterium were removed before opening the intestine longitudinally. The tissue was cut into 2 cm pieces and washed in calcium- and magnesium-free PBS (Gibco). The tissue was then washed for 10 minutes in cold 1 mM DTT (Sigma) in PBS then two 10 minute washes in 30 mM EDTA, 10 mM HEPES (Gibco) in PBS at 37° C. The tissue was washed with complete RPMI and digested for 1.5 hr at 37° C. in 5% CO2, humidified atmosphere, in complete RPMI containing 100 U ml-1 type VIII collagenase (Sigma) and 150 μg ml—1 DNaseI (Sigma). After digestion, cells were eluted from the tissue by shaking. Live cells were isolated using a Percoll (Pharmacia) gradient. […]

T1 sequence (P51450 other isoform, or with tags, fused parts or gaps): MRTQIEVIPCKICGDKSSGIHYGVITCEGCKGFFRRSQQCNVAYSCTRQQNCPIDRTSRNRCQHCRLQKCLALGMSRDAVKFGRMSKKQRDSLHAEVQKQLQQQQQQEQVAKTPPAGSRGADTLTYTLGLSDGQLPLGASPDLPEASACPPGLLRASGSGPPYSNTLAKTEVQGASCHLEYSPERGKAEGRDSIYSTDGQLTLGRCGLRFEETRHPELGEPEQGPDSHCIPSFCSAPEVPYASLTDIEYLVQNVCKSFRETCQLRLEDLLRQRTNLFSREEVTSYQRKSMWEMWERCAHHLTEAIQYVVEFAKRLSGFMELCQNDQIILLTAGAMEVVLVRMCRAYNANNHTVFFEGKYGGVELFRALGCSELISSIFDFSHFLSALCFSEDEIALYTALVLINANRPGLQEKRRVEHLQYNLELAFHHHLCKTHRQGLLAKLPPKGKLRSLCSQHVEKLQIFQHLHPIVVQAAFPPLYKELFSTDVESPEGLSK

SMILES | cytotoxic concentration on human cells [1] | RORγt- versus RORα-mediated induction of IL-17a (RORγt) | differentiation of naive CD4+ T cells into Th1, Th2 and regulatory T cells [2] | induction of RORγt mRNA and protein expression ([2]; Th17 conditions) | transcriptional up-regulation of IL-23 receptor (IL-23R) gene ([2]; Th17 polarizing conditions) | expression of IL-17a mRNA and protein ([2]; Th17 polarizing conditions, 10 μM) | number of gut (large intestine) Th17 cells [3]
CC1O[C@@H](OC2C(C)O[C@H](OC3C(C)O[C@@H](O[C@H]4CC[C@@]5(C)[C@H](CC[C@@H]6[C@@H]5C[C@@H](O)[C@]5(C)[C@@H](C(CO)CCO)CC[C@]65O)C4)C[C@H]3O)C[C@H]2O)C[C@@H](O)C1O (stereo partly shown) [Compound 13, 20,22-Dihydrodigoxin-21,23-diol] | > 40 µM |  |  |  |  |  | 
C[C@H]1O[C@@H](O[C@H]2[C@@H](O)C[C@H](O[C@H]3[C@@H](O)C[C@H](O[C@H]4CC[C@@]5(C)[C@H](CC[C@@H]6[C@@H]5C[C@@H](O)[C@]5(C)[C@@H](C7=CC(=O)OC7)CC[C@]65O)C4)O[C@@H]3C)O[C@@H]2C)C[C@H](O)[C@@H]1O [Digoxin] |  | suppressed RORγt—but not RORα-mediated induction of IL-17a | no effect | not affected | strongly inhibited | markedly reduced | reduction
